How the values were obtained:
[1] = DDI studies of 3D regimen with HIV-1 protease inhibitors (ATV, DRV, LPV/r); details: for Total bilirubin elevation Grade 3, subjects: 3D regimen DDI study; for Cmax, AUC and Ctrough, % change: HIV PI co-administered with 3D regimen; for tolerability: co-administration with 3D regimen
[2] = Drug interaction study of 3D regimen with carbamazepine (CBZ); format: in vivo, human
Procedure: Single doses of the 3D regimen (Compound 1/r/ombitasvir 150/100/25 mg+dasabuvir 250 mg) were administered alone and in the presence of steady state CBZ 200 mg BID in 12 healthy subjects. Drug concentrations were determined from blood samples collected on multiple study days and PK parameters were estimated by noncompartmental analyses. Safety was assessed (adverse events, vital signs, ECG, etc.) throughout the study.

[3] = DDI studies of 3D regimen with HIV-1 N(t)RTIs, NNRTIs and INSTI; format: in vivo, human; details: for exposures (Cmax and AUCτ), % change: both; for exposures (Cmax and AUCτ), % change / exposures (Cmax and AUCτ), effect: human, in vivo
[4] = Drug interaction study of 3D or 2D with ketoconazole (KTZ); format: in vivo, human
Procedure: Single doses of Compound 1/r/ombitasvir 150/100/25 mg+/−dasabuvir 250 mg were administered alone and in the presence of steady state KTZ 400 mg QD in 24 healthy volunteers. Drug concentrations were determined from intensive blood samples and PK parameters were estimated by noncompartmental analyses. Safety assessment (adverse events, clinical labs, vital signs, ECG) was done throughout the study.

[5] = Drug interaction study of 3D or 2D regimen with omeprazole; details: human, in vivo, 40 mg
Procedure: In 24 healthy volunteers omeprazole (40 mg) were administered on day 1 and days 20-24. The 3D or 2D regimen (Compound 1/r 150/100 mg QD+ombitasvir 25 mg QD±dasabuvir 250 mg BID) was administered on days 6-24. Intensive PK sampling was performed for study drugs when dosed alone and during coadministration and parameters estimated by noncompartmental analyses. Safety was evaluated through assessment of adverse events, vital signs, ECG and clinical laboratory tests.

[6] = Drug interaction study of pravastatin and rosuvastatin with 3D or 2D; format: in vivo, human
Procedure: After a washout, multiple doses of pravastatin (10 mg QD, N=12) and rosuvastatin (5 mg QD, N=12) were administered with and without 3D or 2D to steady state in Period 2. […] Intensive PK sampling was performed in both periods and PK parameters estimated by noncompartmental analyses. Safety was evaluated through assessment of adverse events, vital signs, ECG and clinical laboratory tests.

[7] = RPV 75 mg QD; cited from earlier work
[8] = Drug interaction study of 3D or 2D regimen with digoxin; format: in vivo, human; details: healthy volunteers
Procedure: Single doses of digoxin (0.5 mg) were administered alone and in presence of steady state Compound 1/r 150/100 mg QD+ombitasvir 25 mg QD+/−dasabuvir […] BID in 24 healthy volunteers. Drug concentrations were
determined from intensive blood samples collected on multiple study days and PK parameters were estimated by noncompartmental analyses. Safety was assessed (adverse events, vital signs, ECG, etc.) throughout the study.

[9] = human, in vivo
Description: Safety was monitored throughout the study.

[10] = single dose 3D or 2D with steady state KTZ 400 mg QD
[11] = LPV/r 800/200 mg QPM with 3D regimen

COC(=O)N[C@H](C(=O)N[C@@H](Cc1ccccc1)[C@@H](O)CN(Cc1ccc(-c2ccccn2)cc1)NC(=O)[C@@H](NC(=O)OC)C(C)(C)C)C(C)(C)C [ATV, Atazanavir]
Total bilirubin elevation Grade 3, subjects ([1]; ATV QD arm): 10/24 | Total bilirubin elevation Grade 3, subjects ([1]; ATV QPM arm): 16/24 | Ctrough, % higher ([1]; ATV+RTV QPM with 3D regimen): 68% | Cmax, AUC and Ctrough, % change [1]: ≥ 20% | tolerability [1]: generally well tolerated

NC(=O)N1c2ccccc2C=Cc2ccccc21 [CBZ, Carbamazepine]
Increases in ALT and AST, peak ([2]; 3D coadministered with CBZ): Grade 3 in 1 subject | exposures, % increase ([2]; CBZ with 3D): ≤ 17% | tolerability ([2]; coadministration of 3D with CBZ): generally tolerated

Cc1cnc(C(=O)N[C@H]2CCCCC/C=C\[C@@H]3C[C@@]3(C(=O)NS(=O)(=O)C3CC3)NC(=O)[C@@H]3C[C@@H](Oc4nc5ccccc5c5ccccc45)CN3C2=O)cn1 [Compound 1, (2R,6S,13aS,14aR,16aS,Z)—N-(cyclopropylsulfonyl)-6-(5-methylpyrazine-2-carboxamido)-5,16-dioxo-2-(phenanthridin-6-yloxy)-1,2,3,5,6,7,8,9,10,11,13a,14,14a,15,16,16a-hexadecahydrocyclopropa[e]pyrrolo[1,2-a][1,4]diazacyclopentadecine-14a-carboxamide]
exposures (Cmax and AUCτ), % change [3]: up to ±32% | exposures (Cmax and AUCτ), effect [3]: not affected | exposures (Cmax and AUCτ), % higher ([1]; 3D regimen with LPV/r QPM or BID): ≤ 117% | AUCinf increased by [4, 10]: 98-116% | Cmax increased by ([4]; single dose 3D or 2D with steady state KTZ 400 mg QD, healthy volunteers): 37-72% | Cmax, AUC or Ctrough, % change [5]: < 20%

COc1c(-c2ccc3cc(NS(C)(=O)=O)ccc3c2)cc(-n2ccc(=O)[nH]c2=O)cc1C(C)(C)C [Compound 2, N-(6-(3-tert-butyl-5-(2,4-dioxo-3,4-dihydropyrimidin-1(2H)-yl)-2-methoxyphenyl)naphthalen-2-yl)methanesulfonamide]
exposures (Cmax and AUCτ), % change [3]: up to ±18% | exposures (Cmax and AUCτ), effect [3]: not affected | Exposures increased by [4, 10]: up to 42% | Cmax, AUC or Ctrough, % change [5]: < 20%

COC(=O)N[C@H](C(=O)N1CCC[C@H]1C(=O)Nc1ccc([C@@H]2CC[C@@H](c3ccc(NC(=O)[C@@H]4CCCN4C(=O)[C@@H](NC(=O)OC)C(C)C)cc3)N2c2ccc(C(C)(C)C)cc2)cc1)C(C)C [Compound 3]
exposures (Cmax and AUCτ), % change [3]: up to ±11% | exposures (Cmax and AUCτ), effect [3]: not affected | Exposures increased by [4, 10]: up to 26%

CC(C)CN(C[C@@H](O)[C@H](Cc1ccccc1)NC(=O)O[C@H]1CO[C@H]2OCC[C@H]21)S(=O)(=O)c1ccc(N)cc1 [DRV, Darunavir]
tolerability [1]: generally well tolerated

CC(=O)N1CCN(c2ccc(OCC3COC(Cn4ccnc4)(c4ccc(Cl)cc4Cl)O3)cc2)CC1 (centres unmarked) [KTZ, Ketoconazole]
AUC24 increased by ([4]; in vivo): 105-117% | Cmax, % change ([4]; in vivo): < 20%

Cc1cccc(C)c1OCC(=O)N[C@@H](Cc1ccccc1)[C@@H](O)C[C@H](Cc1ccccc1)NC(=O)[C@H](C(C)C)N1CCCNC1=O [LPV, Lopinavir]
Cmax, AUC and Ctrough, % change [1]: ≤ 15% | Ctrough versus values observed with LPV/r 400/100 mg BID administered alone [1, 11]: comparable | Ctrough, % higher [1, 11]: 218%

CC[C@H](C)C(=O)O[C@H]1C[C@H](O)C=C2C=C[C@H](C)[C@H](CC[C@@H](O)C[C@@H](O)CC(=O)O)[C@H]21 [Pravastatin]
AUC, % higher ([6]; statin with 3D or 2D): ~80% | Cmax, % higher ([6]; statin with 3D or 2D): about 40%

Cc1nnc(C(=O)NC(C)(C)c2nc(C(=O)NCc3ccc(F)cc3)c(O)c(=O)n2C)o1 [RAL, Raltegravir]
treatment discontinuations / premature discontinuation due to AE ([3]; co-administration of 3D regimen with HIV-1 ARV): no treatment discontinuations | tolerability ([3]; co-administration with 3D regimen): generally well tolerated

Cc1cc(/C=C/C#N)cc(C)c1Nc1ccnc(Nc2ccc(C#N)cc2)n1 [RPV, Rilpivirine]
Cmax, fold higher than Cmax with RPV 25 mg QD [7]: approximately 2.6 fold | QTcF increase [7]: 10.7 ms

CC(C)c1nc(N(C)S(C)(=O)=O)nc(-c2ccc(F)cc2)c1/C=C/[C@@H](O)C[C@@H](O)CC(=O)O [Rosuvastatin]
AUC, % higher ([6]; statin with 2D): 32% | Cmax, % higher ([6]; statin with 2D): 161% | AUC, % higher ([6]; statin with 3D): 159% | Cmax, % higher ([6]; statin with 3D): 613%

C[C@H]1O[C@@H](O[C@H]2[C@@H](O)C[C@H](O[C@H]3[C@@H](O)C[C@H](O[C@H]4CC[C@@]5(C)[C@H](CC[C@@H]6[C@@H]5C[C@@H](O)[C@]5(C)[C@@H](C7=CC(=O)OC7)CC[C@]65O)C4)O[C@@H]3C)O[C@@H]2C)C[C@H](O)[C@@H]1O [digoxin]
exposures (Cmax and AUCinf) increased by ([8]; digoxin 0.5 mg single dose with 2D): 24-58% | exposures (Cmax and AUCinf) increased by ([8]; digoxin 0.5 mg single dose with 2D, listed as Digoxin): ≤ 58% | exposures (Cmax and AUCinf) increased by ([8]; digoxin 0.5 mg single dose with 3D): 15-16% | exposures (Cmax and AUCinf) increased by ([8]; digoxin 0.5 mg single dose with 3D, listed as Digoxin): ≤ 16%

CC(C)c1nc(CN(C)C(=O)N[C@H](C(=O)N[C@@H](Cc2ccccc2)C[C@H](O)[C@H](Cc2ccccc2)NC(=O)OCc2cncs2)C(C)C)cs1 [ritonavir]
exposures (Cmax and AUCτ), % change [3]: ±17% | exposures (Cmax and AUCτ), effect [3]: not affected | Exposures increased by [4, 10]: 27-57%

C=CC[C@@H]1/C=C(\C)C[C@H](C)C[C@H](OC)[C@H]2O[C@@](O)(C(=O)C(=O)N3CCCC[C@H]3C(=O)O[C@H](/C(C)=C/[C@@H]3CC[C@@H](O)[C@H](OC)C3)[C@H](C)[C@@H](O)CC1=O)[C@H](C)C[C@@H]2OC [tacrolimus]
tacrolimus DN_AUCinf, fold of tacrolimus exposure when administered alone [9]: 57-86 fold | tacrolimus DN_Cmax, fold of tacrolimus exposure when administered alone [9]: 3.7-4.3 fold | tacrolimus DN_C24, fold of tacrolimus exposure when administered alone ([9]; 24 h): 17-25 fold

Source: patent publication US20150209403A1, “Dose Adjustment” (AbbVie Inc., priority 2014, published 2015)
